According to US9655875B2, “Method of treating or preventing tumors using 1-(alkylsulfinyl)-2-isothiocyanatoalkyl-1-alkene” (BEIJING UNIVERSITY OF CHEMICAL TECHNOLOGY, priority 2013, dated 2017):
Like-named read-outs stand apart in the source and are kept apart here.

Tests used:
[1] = system: Human Peripheral Blood Mononuclear Cell (PBMC); test: Toxicity on peripheral blood mononuclear cells (MTT); assay type: cell-based; settings: for Absorbance 490 nm, replicate 1 / Absorbance 490 nm, replicate 2 / Absorbance 490 nm, replicate 3 / Absorbance 490 nm, replicate 4 / Mean value (absorbance) / Cell viability (%): 24 hrs, MTT; for Cell viability (%): relative to negative control
Description: General operations: normal peripheral blood cells were isolated by Ficoll to obtain mononuclear cells. The mononuclear cells were rinsed by the PBS for three times, and added with IMDM+10% FBS to prepare suspensions. […] The suspensions were then inoculated into 96-well plates, with each hole containing 25 thousands cells per 100 μL of the culture medium, and cultured overnight at 37° C.
Treatment: because the proliferation of the PBMCs is very limited and the PBMCs quickly enter a decline phase. Thus, the cell viability was measured by the MTT assay after 24 hrs of culture. […] The group where PBMCs were treated by the sterile deionized water was selected as the negative control group.
1. Experimental cells: normal peripheral blood cells were isolated by Ficoll to obtain mononuclear cells. The mononuclear cells were rinsed by the PBS for three times, added with IMDM+10% FBS to prepare suspensions, […].
2. […] Then the 96-well plates were transferred into an incubator at 37° C. for culture. […] After another 24 hrs of cultivation, 20 μL of MTT was added to each hole, and the plates were incubated for 3 hrs in the incubator (37° C., 5% CO2). Solution in each hole was then removed and replaced by 150 μL of DMSO.

[2] = system: human lung squamous carcinoma cells H460 xenograft; test: H460 xenograft tumor growth in nude mice; assay type: in vivo; settings: 75 mg/kg oral, three times each week
Description: 1.1 Preparation of experimental animals: 30 nude mice with equal numbers of females and males were fed in normal conditions in the laboratory for between 3 and 5 days.
Preparation of H460 cells: H460 tumor cells were normally cultured, and diluted using the PBS so as to prepare a suspension of tumor cells having a concentration of 7.5×10^6 tumor cells per milliliter.
1.3 Inoculation of tumor cells: the suspension of the tumor cells was fully shaken and 0.2 mL of the suspension was then sucked by a sterile syringe having a capacity of 1 mL. The tumor cells were then inoculated into armpits of the nude mice via subcutaneous injection. The inoculated mice were then fed for between 2 and 3 days in normal conditions. When the tumor tissue grew to a size with a long axis of approximately 3 mm and a short axis of approximately 2 mm, all the nude mice having the tumor tissues were randomly divided into three groups, which were utilized in subsequent administration experiments.
2.1 Control group: five male mice and five female mice having tumor tissues were orally administered with ultrapure water for three times each week (respectively at Monday, Wednesday, and Friday afternoons), and the administered volume was 0.3 mL for each time.
3.2. Acquisition of sizes of tumor tissues in the nude mice: the sizes of the tumor tissues in the nude mice were measured three times per week (respectively at Monday, Wednesday, and Friday afternoons). An electronic vernier caliper was utilized to measure the long axis and the short axis of the tumor tissues, and an accuracy of the data was 0.01 mm.
3.4 Finish time of the experiments: when the tumor tissues in the nude mice of the control group reach an average size of 1000 mm^3 (Volume=long axis×short axis 2×0.5236), the weights and the sizes of the tumor tissues of the nude mice were recorded, and then the experiments were stopped and the nude mice were treated.
3.5 Treatment of nude mice when finishing the experiments: the nude mice were killed, arranged according to different groups, and photographed. Six representative mice were selected from each group and photographed. Then the tumor tissues were respectively isolated, weighed, placed at corresponding positions, and photographed.

[3] = system: human lung squamous carcinoma cells H460; test: MTT growth inhibition of H460 cells (IC50); assay type: cell-based; settings: NCI-H460, 48 hrs of treatment
Description: (§1) 2. […] Solution in each hole was then removed and replaced by 150 μL of DMSO.

[4] = system: human liver cancer cells HepG2; test: MTT growth inhibition of HepG2 cells (IC50); assay type: cell-based; settings: 48 hrs of treatment
Description: as §1

[5] = system: human pancreatic cancer cells PANC-1; test: cells; assay type: cell-based; settings: 48 hrs of treatment, MTT, read-out: IC50 on the growth of the PANC-1 cells
Description: as §1

[6] = system: rat cardiomyocytes; settings: for Relative ratio of ATP/total protein, Mean value (%) / Relative ratio of ATP/total protein, replicate 1 / Relative ratio of ATP/total protein, replicate 2 / Relative ratio of ATP/total protein, replicate 3: both, SD, rat
Description: General operations: 1-2 day old neonatal SD rats (female or male) were selected and cardiomyocytes were isolated in sterile condition. […] The cardiotoxicity of the above drugs were represented by a ratio of ATP/total protein. […] The group where […] were treated by the sterile deionized water was selected as the negative control group.
1. Experimental cells: 1-2 day old neonatal SD rats (female or male) were selected and sterilized. Then ventricular muscles were collected and digested by trypsin to prepare cardiomyocyte suspensions. The suspensions were cultured in the incubator (37° C., 5% CO2), and primary cardiomyocytes were cultured by differential adhesion.
2. […] After another 6 hrs of cultivation, the culture solution in each hole was replaced by the normal culture solution not containing any drugs, and incubated for 42 hrs in the incubator (37° C., 5% CO2). Solution in each hole was then removed, and cells therein were rinsed by the PBS for three times, digested by the trypsin, and gathered into two parts. One part of the cells was utilized to measure the ATP level by the reporter gene assay, and the other part of the cells was utilized to measure the cellular protein concentration by BAC assay. The ratio of ATP (ng) to the protein concentration (μg) was calculated, and the ratio of each experimental group is divided by the ratio of the contrast group to obtain the relative ratio of ATP/total protein, experimental results were listed in Table 4.

[7] = system: human lung adenocarcinoma cells A549; test: MTT growth inhibition of A549 cells (IC50); assay type: cell-based; settings: 48 hrs of treatment
Description: as §1

[8] = system: human breast cancer cells MCF-7; test: MTT growth inhibition of MCF-7 cells (IC50); assay type: cell-based; settings: MCF7, 48 hrs of treatment
Description: as §1

[9] = system: human cervical cancer cells HeLa; test: MTT growth inhibition of HeLa cells (IC50); assay type: cell-based; settings: 48 hrs of treatment
Description: as §1

[10] = system: human lung adenocarcinoma cells A549; test: Inhibition rate at 10 μM versus chemotherapeutic drugs, A549 (MTT); assay type: cell-based; settings: A549, 10 μM of drug
Source text: (§2) As a drug for target therapy, the erlotinib is applicable to a third-line treatment of locally advanced or metastatic non-small cell lung cancer when two or more than two chemotherapies are failed. Currently, the gemcitabine is clinically utilized as the drug of the first-line therapy in treating advanced non-small cell lung cancer and the metastatic breast cancer. […] 1. Experimental cell lines and related chemical reagents: sources and cultivation of the human lung adenocarcinoma cells A549, the human lung squamous carcinoma cell line H460, the human breast carcinoma cell line MCF-7 are described in the above. […] Then the 96-well plates were transferred into the incubator (37° C., 5% CO2) for culture. […] The anti-tumor effects of the above drugs were measured by the MTT assay. The number of viable cells in the negative control groups at 0 hr was taken as a basis to calculate the anti-tumor effects.

[11] = system: human lung squamous carcinoma cell line H460; test: Inhibition rate at 10 μM versus chemotherapeutic drugs, H460 (MTT); assay type: cell-based; settings: NCI-H460, H460, 10 μM of drug
Source text: as §2

[12] = system: human breast carcinoma cell line MCF-7; test: Inhibition rate at 10 μM versus chemotherapeutic drugs, MCF-7 (MTT); assay type: cell-based; settings: MCF7, MCF-7, 10 μM of drug
Source text: as §2

[13] = contrast chemotherapeutic drugs, 10 μM (other concentrations)

## C[S+]([O-])CCCCN=C=S (centres unmarked) [Sulforaphane, 1-isothiocyanato-4-(methysulfinyl)-butane]
[1]; 10 μM
  Absorbance 490 nm, replicate 1: 0.702
  Absorbance 490 nm, replicate 2: 0.633
  Absorbance 490 nm, replicate 3: 0.705
  Absorbance 490 nm, replicate 4: 0.593
  Mean value (absorbance): 0.658
  Cell viability (%): 82.4%
[1]; 30 μM
  Absorbance 490 nm, replicate 1: 0.655
  Absorbance 490 nm, replicate 2: 0.616
  Absorbance 490 nm, replicate 3: 0.58
  Absorbance 490 nm, replicate 4: 0.628
  Mean value (absorbance): 0.620
  Cell viability (%): 77.6%
[1]; 50 μM
  Absorbance 490 nm, replicate 1: 0.663
  Absorbance 490 nm, replicate 2: 0.621
  Absorbance 490 nm, replicate 3: 0.610
  Absorbance 490 nm, replicate 4: 0.610
  Mean value (absorbance): 0.626
  Cell viability (%): 78.4%
[1]; Table 3 summary
  Effect on the proliferation of the PBMCs: certain effect on the proliferation of the cells
[2]; day 1
  Tumor volume on 1st day: 30.55 mm^3
[2]; day 3
  Tumor volume on 3rd day: 78.81 mm^3
[2]; day 6
  Tumor volume on 6st day: 257.8812 mm^3
[2]; day 8
  Tumor volume on 8th day: 389.6022 mm^3
[2]; day 10
  Tumor volume on 10th day: 552.7308 mm^3
[3]
  IC50: 34.6 µM
[4]
  IC50: 47.3 µM
[5]
  IC50: 6.73 µM
[6]; 10 μM
  Relative ratio of ATP/total protein, Mean value (%): 89.87%
  Relative ratio of ATP/total protein, replicate 1: 90.0%
  Relative ratio of ATP/total protein, replicate 2: 88.2%
  Relative ratio of ATP/total protein, replicate 3: 91.4%
[6]; 30 μM
  Relative ratio of ATP/total protein, Mean value (%): 83.33%
  Relative ratio of ATP/total protein, replicate 1: 85.1%
  Relative ratio of ATP/total protein, replicate 2: 83.3%
  Relative ratio of ATP/total protein, replicate 3: 81.6%
[6]; 50 μM
  Relative ratio of ATP/total protein, Mean value (%): 76.03%
  Relative ratio of ATP/total protein, replicate 1: 77.5%
  Relative ratio of ATP/total protein, replicate 2: 76.7%
  Relative ratio of ATP/total protein, replicate 3: 73.9%
[7]
  IC50: 14.7 µM
[8]
  IC50: 19.5 µM
[9]
  IC50: 25.8 µM

## C#Cc1cccc(Nc2ncnc3cc(OCCOC)c(OCCOC)cc23)c1 [Erlotinib, erlotinib]
[10]
  inhibition at 10 µM: 30.3%
[11]
  inhibition at 10 µM: 33.1%

## Nc1ccn([C@@H]2O[C@H](CO)[C@@H](O)C2(F)F)c(=O)n1 [Gemcitabine, gemcitabine]
[10]
  inhibition at 10 µM: 6.9%
[12]
  inhibition at 10 µM: 40.1%
[11]
  inhibition at 10 µM: 4.3%

## O=c1[nH]cc(F)c(=O)[nH]1 [5-FU, 5-fluorouracil]
[1]; [13]
  Absorbance 490 nm, replicate 1: 0.493
  Absorbance 490 nm, replicate 2: 0.484
  Absorbance 490 nm, replicate 3: 0.525
  Absorbance 490 nm, replicate 4: 0.461
  Mean value (absorbance): 0.491
  Cell viability (%): 61.4%
[12]
  inhibition at 10 µM: 15.8%

## CC(=O)O[C@H]1C(=O)[C@@]2(C)[C@H]([C@H](OC(=O)c3ccccc3)[C@]3(O)C[C@H](OC(=O)[C@H](O)[C@@H](NC(=O)c4ccccc4)c4ccccc4)C(C)=C1C3(C)C)[C@]1(OC(C)=O)CO[C@@H]1C[C@@H]2O [Paclitaxel, paclitaxel]
[10]
  inhibition at 10 µM: 28.8%
[1]; [13]
  Absorbance 490 nm, replicate 1: 0.712
  Absorbance 490 nm, replicate 2: 0.743
  Absorbance 490 nm, replicate 3: 0.683
  Absorbance 490 nm, replicate 4: 0.650
  Mean value (absorbance): 0.697
  Cell viability (%): 87.2%
[12]
  inhibition at 10 µM: 89.6%
[11]
  inhibition at 10 µM: 17.3%

## COc1cccc2c1C(=O)c1c(O)c3c(c(O)c1C2=O)C[C@@](O)(C(=O)CO)C[C@@H]3O[C@H]1C[C@H](N)[C@H](O)[C@H](C)O1 [Adriamycin, adriamycin]
[1]; [13]
  Absorbance 490 nm, replicate 1: 0.482
  Absorbance 490 nm, replicate 2: 0.482
  Absorbance 490 nm, replicate 3: 0.496
  Absorbance 490 nm, replicate 4: 0.530
  Mean value (absorbance): 0.498
  Cell viability (%): 62.3%
[6]
  Toxicity on the cardiomyocytes: obvious toxicity on the cardiomyocytes
[6]; 10 μM
  Relative ratio of ATP/total protein, Mean value (%): 46.97%
  Relative ratio of ATP/total protein, replicate 1: 47.3%
  Relative ratio of ATP/total protein, replicate 2: 43.1%
  Relative ratio of ATP/total protein, replicate 3: 50.5%
